Laboratory results taken from the supplement of paper PMC10627819.

Experiments:
S. aureus DSM 20231 [1] = test: fitness (endpoint OD595 vs no drug) (fraction); higher = more growth
Summary of the method: (§1)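 With the first reading as background, OD595 was measured every 30 min for 14 h in 384-well plates kept at 37 °C and inoculated at OD595 0.01. TSB, LB Lennox or CY was the medium. Fitness is the optical density at the transition into stationary phase divided by the robust mean of no-drug control wells, with a cap of 1.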

S. aureus Newman [2] = test: as above
Summary of the method: as §1

S. pneumoniae D39V [3] = test: as above
Summary of the method: as §1

B. subtilis 168 = test: Bliss interaction score (quartile over a dose matrix) (fitness difference); higher = more antagonism (negative = synergy)
Summary of the method: (§2)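 Each plate was normalised to the robust mean of its own no-drug wells, using OD595 at entry into stationary phase, with values capped at 1. This normalised growth is the fitness value. The Bliss score is the difference between observed and product-expected fitness, with single-drug fitness inferred from the combination data and quartiles taken over technical, biological and donor/recipient replicates.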

S. aureus DSM 20231 [4] = test: as above
Summary of the method: as §2

S. aureus Newman [5] = test: as above
Summary of the method: as §2

S. pneumoniae D39V [6] = test: as above
Summary of the method: as §2
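For Bliss interaction score (quartile over a dose matrix) in this document: first quartile when negative (synergy) and third quartile when positive (antagonism).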

COc1cccc2c1C(=O)c1c(O)c3c(c(O)c1C2=O)C[C@@](O)(C(=O)CO)C[C@@H]3O[C@H]1C[C@H](N)[C@H](O)[C@H](C)O1 [Doxorubicin] + CN[C@H](CC(C)C)C(=O)N[C@H]1C(=O)N[C@@H](CC(N)=O)C(=O)N[C@H]2C(=O)N[C@H]3C(=O)N[C@H](C(=O)N[C@H](C(=O)O)c4cc(O)cc(O)c4-c4cc3ccc4O)[C@H](O)c3ccc(c(Cl)c3)Oc3cc2cc(c3O[C@@H]2O[C@H](CO)[C@@H](O)[C@H](O)[C@H]2O[C@H]2C[C@](C)(N)[C@H](O)[C@H](C)O2)Oc2ccc(cc2Cl)[C@H]1O [Vancomycin]
Details	fitness
S. aureus DSM 20231 [1], first compound 0.625 µg/mL, partner 0.1875 µg/mL	0.843
S. aureus DSM 20231 [1], first compound 0.625 µg/mL, partner 0.375 µg/mL	0.869
S. aureus DSM 20231 [1], first compound 0.625 µg/mL, partner 0.75 µg/mL	0.888
S. aureus DSM 20231 [1], first compound 1.25 µg/mL, partner 0.1875 µg/mL	0.84
S. aureus DSM 20231 [1], first compound 1.25 µg/mL, partner 0.375 µg/mL	0.927
S. aureus DSM 20231 [1], first compound 1.25 µg/mL, partner 0.75 µg/mL	0.894
S. aureus DSM 20231 [1], first compound 2.5 µg/mL, partner 0.1875 µg/mL	0.787
S. aureus DSM 20231 [1], first compound 2.5 µg/mL, partner 0.375 µg/mL	0.952
S. aureus DSM 20231 [1], first compound 2.5 µg/mL, partner 0.75 µg/mL	0.907
S. aureus Newman [2], first compound 0.625 µg/mL, partner 0.1875 µg/mL	0.849
S. aureus Newman [2], first compound 0.625 µg/mL, partner 0.375 µg/mL	0.825
S. aureus Newman [2], first compound 0.625 µg/mL, partner 0.75 µg/mL	0.851
S. aureus Newman [2], first compound 1.25 µg/mL, partner 0.1875 µg/mL	0.823
S. aureus Newman [2], first compound 1.25 µg/mL, partner 0.375 µg/mL	0.814
S. aureus Newman [2], first compound 1.25 µg/mL, partner 0.75 µg/mL	0.794
S. aureus Newman [2], first compound 2.5 µg/mL, partner 0.1875 µg/mL	0.764
S. aureus Newman [2], first compound 2.5 µg/mL, partner 0.375 µg/mL	0.745
S. aureus Newman [2], first compound 2.5 µg/mL, partner 0.75 µg/mL	0.731
S. pneumoniae D39V [3], first compound 0.25 µg/mL, partner 0.03125 µg/mL	0.92
S. pneumoniae D39V [3], first compound 0.25 µg/mL, partner 0.0625 µg/mL	0.851
S. pneumoniae D39V [3], first compound 0.25 µg/mL, partner 0.125 µg/mL	0.88
S. pneumoniae D39V [3], first compound 0.25 µg/mL, partner 0.5 µg/mL	0.0816
S. pneumoniae D39V [3], first compound 0.5 µg/mL, partner 0.03125 µg/mL	0.924
S. pneumoniae D39V [3], first compound 0.5 µg/mL, partner 0.0625 µg/mL	0.898
S. pneumoniae D39V [3], first compound 0.5 µg/mL, partner 0.125 µg/mL	0.913
S. pneumoniae D39V [3], first compound 0.5 µg/mL, partner 0.5 µg/mL	0.0725
S. pneumoniae D39V [3], first compound 1 µg/mL, partner 0.03125 µg/mL	0.865
S. pneumoniae D39V [3], first compound 1 µg/mL, partner 0.0625 µg/mL	0.8
S. pneumoniae D39V [3], first compound 1 µg/mL, partner 0.25 µg/mL	0.377
S. pneumoniae D39V [3], first compound 1 µg/mL, partner 0.5 µg/mL	0.0604

Details	Bliss interaction score
B. subtilis 168	-0.0982
S. aureus DSM 20231 [4]	-0.0449
S. aureus Newman [5]	-0.0426
S. pneumoniae D39V [6]	0.048

C[C@@H]1O[C@@H]1P(=O)(O)O [Fosfomycin] + Cn1nnc(-c2ccc(-c3ccc(N4C[C@H](CO)OC4=O)cc3F)cn2)n1 [Tedizolid]
fitness
Details	partner 0.03125 µg/mL	partner 0.0625 µg/mL	partner 0.125 µg/mL	partner 0.25 µg/mL	partner 0.5 µg/mL
S. aureus DSM 20231 [1], first compound 0.781 µg/mL	–	0.693	0.497	0.091	–
S. aureus DSM 20231 [1], first compound 1.562 µg/mL	–	0.66	0.372	0.0334	–
S. aureus DSM 20231 [1], first compound 3.124 µg/mL	–	0.493	0.202	0.0354	–
S. aureus Newman [2], first compound 0.781 µg/mL	–	0.52	–	–	–
S. aureus Newman [2], first compound 1.562 µg/mL	–	–	–	0.101	–
S. aureus Newman [2], first compound 3.124 µg/mL	–	0.106	0.0423	0.0102	–
S. pneumoniae D39V [3], first compound 1.25 µg/mL	0.951	0.95	0.813	0.43	0.138
S. pneumoniae D39V [3], first compound 2.5 µg/mL	0.936	0.906	0.792	0.455	0.132
S. pneumoniae D39V [3], first compound 5 µg/mL	0.89	0.911	0.783	0.437	0.151

Details	Bliss interaction score
B. subtilis 168	0.0967
S. aureus DSM 20231 [4]	0.069
S. aureus Newman [5]	-0.128
S. pneumoniae D39V [6]	0.0919
